Measured values reported in the kinase profiling compilation of Christmann-Franck et al. (2016).

What was measured:
Experiment in all cases: radiometric filter-binding kinase assay, Kinase HotSpot
Conditions in all cases: compound 0.5 µM; ATP 10 µM
ACVRL1 (human) = ACVRL1 (human) (UniProt P37023)
AKT1 (human) = AKT1 (human) (UniProt P31749)
ALK (human) = ALK (human) (UniProt Q9UM73)
CAMK1 (human) = CAMK1 (human) (UniProt Q14012)
CAMKK1 (human) = CAMKK1 (human) (UniProt Q8N5S9)
CDK1 CCNA2 (human) = CDK1 CCNA2 (human) (UniProt P06493+P20248)
CDK1 CCNB1 (human) = CDK1 CCNB1 (human) (UniProt P06493+P14635)
CDK3 CCNE1 (human) = CDK3 CCNE1 (human) (UniProt Q00526+P24864)
CLK1 (human) = CLK1 (human) (UniProt P49759)
CSNK1G3 (human) = CSNK1G3 (human) (UniProt Q9Y6M4)
DDR2 (human) = DDR2 (human) (UniProt Q16832)
Sequence of DDR2 (human) (Q16832 whole entry, looked up): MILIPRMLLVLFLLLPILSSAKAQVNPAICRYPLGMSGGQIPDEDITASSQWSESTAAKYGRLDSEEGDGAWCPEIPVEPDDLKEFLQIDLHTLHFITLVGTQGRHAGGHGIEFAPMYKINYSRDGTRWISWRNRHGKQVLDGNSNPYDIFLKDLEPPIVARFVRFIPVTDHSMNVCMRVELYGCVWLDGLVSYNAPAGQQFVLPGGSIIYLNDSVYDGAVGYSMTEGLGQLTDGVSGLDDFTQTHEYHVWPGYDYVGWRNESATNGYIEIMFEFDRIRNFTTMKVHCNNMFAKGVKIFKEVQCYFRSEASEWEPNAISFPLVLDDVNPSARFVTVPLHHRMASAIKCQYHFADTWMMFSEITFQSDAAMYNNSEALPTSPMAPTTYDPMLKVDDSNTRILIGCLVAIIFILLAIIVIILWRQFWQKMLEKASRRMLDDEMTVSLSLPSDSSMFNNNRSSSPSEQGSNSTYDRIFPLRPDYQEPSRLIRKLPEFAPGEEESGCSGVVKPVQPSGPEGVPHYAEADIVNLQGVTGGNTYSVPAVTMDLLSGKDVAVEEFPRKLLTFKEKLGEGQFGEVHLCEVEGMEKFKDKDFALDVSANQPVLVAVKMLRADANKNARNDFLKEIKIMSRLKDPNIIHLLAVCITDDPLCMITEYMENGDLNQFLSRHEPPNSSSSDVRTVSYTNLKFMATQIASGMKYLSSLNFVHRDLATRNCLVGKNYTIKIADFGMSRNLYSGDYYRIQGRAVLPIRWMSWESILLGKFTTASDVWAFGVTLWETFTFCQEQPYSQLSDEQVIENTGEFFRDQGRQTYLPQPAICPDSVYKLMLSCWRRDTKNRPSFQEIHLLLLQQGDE

DYRK1B (human) = DYRK1B (human) (UniProt Q9Y463)
DYRK3 (human) = DYRK3 (human) (UniProt O43781)
EPHA4 (human) = EPHA4 (human) (UniProt P54764)
EPHA7 (human) = EPHA7 (human) (UniProt Q15375)
FGR (human) = FGR (human) (UniProt P09769)
Sequence of FGR (human) (P09769 whole entry, looked up): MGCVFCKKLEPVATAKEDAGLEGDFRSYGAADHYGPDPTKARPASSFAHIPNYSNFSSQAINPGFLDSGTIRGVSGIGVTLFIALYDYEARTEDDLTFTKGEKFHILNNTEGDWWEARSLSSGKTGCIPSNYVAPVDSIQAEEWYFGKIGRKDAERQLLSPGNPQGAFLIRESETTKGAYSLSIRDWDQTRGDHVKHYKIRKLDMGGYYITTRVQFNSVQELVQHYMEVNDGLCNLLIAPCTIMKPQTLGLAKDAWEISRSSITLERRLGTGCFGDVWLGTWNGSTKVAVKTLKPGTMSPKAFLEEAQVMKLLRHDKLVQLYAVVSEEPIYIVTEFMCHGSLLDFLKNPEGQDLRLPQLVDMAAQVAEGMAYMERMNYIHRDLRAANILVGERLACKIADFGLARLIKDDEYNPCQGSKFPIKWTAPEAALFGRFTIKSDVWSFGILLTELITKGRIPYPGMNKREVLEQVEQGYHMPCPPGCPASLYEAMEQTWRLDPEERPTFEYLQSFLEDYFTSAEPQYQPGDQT

IGF1R (human) = IGF1R (human) (UniProt P08069)
JAK2 JH1 JH2 (human) = JAK2 JH1 JH2 (human) (UniProt O60674)
MAP3K3 (human) = MAP3K3 (human) (UniProt Q99759)
MAP3K5 (human) = MAP3K5 (human) (UniProt Q99683)
Sequence of MAP3K5 (human) (Q99683 whole entry, looked up): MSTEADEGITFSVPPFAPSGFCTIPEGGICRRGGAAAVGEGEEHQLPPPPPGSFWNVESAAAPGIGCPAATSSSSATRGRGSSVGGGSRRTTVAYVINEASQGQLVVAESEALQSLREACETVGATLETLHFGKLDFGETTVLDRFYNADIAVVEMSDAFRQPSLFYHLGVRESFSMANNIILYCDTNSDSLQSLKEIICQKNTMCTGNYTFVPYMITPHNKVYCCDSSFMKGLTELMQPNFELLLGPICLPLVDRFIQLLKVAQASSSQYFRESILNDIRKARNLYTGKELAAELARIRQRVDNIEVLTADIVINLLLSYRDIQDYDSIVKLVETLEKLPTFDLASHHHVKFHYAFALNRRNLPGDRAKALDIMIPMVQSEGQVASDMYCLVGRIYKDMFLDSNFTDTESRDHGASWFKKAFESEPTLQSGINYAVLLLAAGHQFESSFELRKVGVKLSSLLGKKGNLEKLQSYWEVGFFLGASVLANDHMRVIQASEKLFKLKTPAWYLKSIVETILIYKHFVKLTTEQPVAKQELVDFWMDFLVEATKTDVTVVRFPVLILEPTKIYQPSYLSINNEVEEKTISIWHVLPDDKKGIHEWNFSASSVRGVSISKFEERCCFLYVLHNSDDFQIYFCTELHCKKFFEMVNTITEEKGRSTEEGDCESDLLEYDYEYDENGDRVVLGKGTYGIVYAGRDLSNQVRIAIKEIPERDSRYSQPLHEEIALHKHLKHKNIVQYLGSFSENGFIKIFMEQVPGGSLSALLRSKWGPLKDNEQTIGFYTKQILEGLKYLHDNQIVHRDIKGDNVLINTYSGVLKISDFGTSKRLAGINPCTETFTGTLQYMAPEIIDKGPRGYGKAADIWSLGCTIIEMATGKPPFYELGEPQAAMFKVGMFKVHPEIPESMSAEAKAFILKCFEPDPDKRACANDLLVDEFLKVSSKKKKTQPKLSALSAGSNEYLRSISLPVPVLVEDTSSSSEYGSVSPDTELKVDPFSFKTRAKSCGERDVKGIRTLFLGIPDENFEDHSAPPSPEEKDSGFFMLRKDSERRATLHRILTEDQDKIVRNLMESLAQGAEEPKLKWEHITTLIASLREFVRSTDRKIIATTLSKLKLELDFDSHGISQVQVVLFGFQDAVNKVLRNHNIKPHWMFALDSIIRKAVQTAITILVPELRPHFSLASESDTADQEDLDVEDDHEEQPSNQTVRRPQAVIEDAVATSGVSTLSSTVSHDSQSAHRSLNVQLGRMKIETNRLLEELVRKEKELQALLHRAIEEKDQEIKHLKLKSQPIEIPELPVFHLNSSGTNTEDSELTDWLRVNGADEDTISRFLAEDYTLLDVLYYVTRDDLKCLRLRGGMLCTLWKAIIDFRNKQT

MAP3K9 (human) = MAP3K9 (human) (UniProt P80192)
MAPK1 (human) = MAPK1 (human) (UniProt P28482)
Sequence of MAPK1 (human) (P28482 whole entry, looked up): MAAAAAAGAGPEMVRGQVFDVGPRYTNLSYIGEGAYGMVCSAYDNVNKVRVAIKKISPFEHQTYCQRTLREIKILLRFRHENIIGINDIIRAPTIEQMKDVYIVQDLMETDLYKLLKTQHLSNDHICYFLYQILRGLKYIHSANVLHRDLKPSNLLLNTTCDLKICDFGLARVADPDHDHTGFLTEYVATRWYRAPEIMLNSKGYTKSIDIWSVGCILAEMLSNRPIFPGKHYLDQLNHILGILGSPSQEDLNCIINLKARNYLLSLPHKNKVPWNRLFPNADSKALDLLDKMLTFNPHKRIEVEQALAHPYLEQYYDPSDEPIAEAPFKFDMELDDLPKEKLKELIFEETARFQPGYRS

MAPK12 (human) = MAPK12 (human) (UniProt P53778)
Sequence of MAPK12 (human) (P53778 whole entry, looked up): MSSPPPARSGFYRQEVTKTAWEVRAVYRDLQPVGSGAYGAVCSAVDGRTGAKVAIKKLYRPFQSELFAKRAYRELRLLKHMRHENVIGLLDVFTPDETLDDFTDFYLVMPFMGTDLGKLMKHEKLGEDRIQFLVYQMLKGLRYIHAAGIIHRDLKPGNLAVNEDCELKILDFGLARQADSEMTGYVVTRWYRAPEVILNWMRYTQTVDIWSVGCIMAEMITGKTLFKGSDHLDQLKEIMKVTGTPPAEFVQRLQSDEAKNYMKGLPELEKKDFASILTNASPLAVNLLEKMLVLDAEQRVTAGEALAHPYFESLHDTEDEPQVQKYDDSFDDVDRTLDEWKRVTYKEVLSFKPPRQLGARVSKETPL

MAPK13 (human) = MAPK13 (human) (UniProt O15264)
MKNK2 (human) = MKNK2 (human) (UniProt Q9HBH9)
NTRK2 (human) = NTRK2 (human) (UniProt Q16620)
PAK4 (human) = PAK4 (human) (UniProt O96013)
PIM2 (human) = PIM2 (human) (UniProt Q9P1W9)
Sequence of PIM2 (human) (Q9P1W9 whole entry, looked up): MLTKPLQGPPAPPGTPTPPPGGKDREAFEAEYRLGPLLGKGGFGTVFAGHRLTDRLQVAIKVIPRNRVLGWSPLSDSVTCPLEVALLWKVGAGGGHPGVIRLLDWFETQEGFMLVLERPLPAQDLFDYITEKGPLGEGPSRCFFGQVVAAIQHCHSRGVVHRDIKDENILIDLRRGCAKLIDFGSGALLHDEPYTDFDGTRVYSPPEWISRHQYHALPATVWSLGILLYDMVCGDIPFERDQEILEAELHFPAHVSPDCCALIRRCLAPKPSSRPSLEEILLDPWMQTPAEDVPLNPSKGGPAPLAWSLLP

PIM3 (human) = PIM3 (human) (UniProt Q86V86)
PRKCD (human) = PRKCD (human) (UniProt Q05655)
PRKCG (human) = PRKCG (human) (UniProt P05129)
PRKG2 (human) = PRKG2 (human) (UniProt Q13237)
RAF1 (human) = RAF1 (human) (UniProt P04049)
RPS6KA5 KD2 (human) = RPS6KA5 KD2 (human) (UniProt O75582)
RPS6KA6 KD1 KD2 (human) = RPS6KA6 KD1 KD2 (human) (UniProt Q9UK32)
SGK2 (human) = SGK2 (human) (UniProt Q9HBY8)
Sequence of SGK2 (human) (Q9HBY8 whole entry, looked up): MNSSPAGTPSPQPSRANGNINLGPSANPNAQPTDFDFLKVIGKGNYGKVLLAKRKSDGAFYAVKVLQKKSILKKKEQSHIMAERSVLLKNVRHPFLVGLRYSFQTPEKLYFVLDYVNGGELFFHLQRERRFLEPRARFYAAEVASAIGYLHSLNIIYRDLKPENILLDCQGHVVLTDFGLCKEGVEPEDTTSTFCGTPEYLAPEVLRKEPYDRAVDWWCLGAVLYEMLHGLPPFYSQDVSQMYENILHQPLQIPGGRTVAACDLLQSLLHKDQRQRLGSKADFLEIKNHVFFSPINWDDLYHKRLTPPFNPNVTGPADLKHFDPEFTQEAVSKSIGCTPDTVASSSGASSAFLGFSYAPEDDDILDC

SRC (human) = SRC (human) (UniProt P12931)
STK33 (human) = STK33 (human) (UniProt Q9BYT3)
TSSK1B (human) = TSSK1B (human) (UniProt Q9BXA7)
Sequence of TSSK1B (human) (Q9BXA7 whole entry, looked up): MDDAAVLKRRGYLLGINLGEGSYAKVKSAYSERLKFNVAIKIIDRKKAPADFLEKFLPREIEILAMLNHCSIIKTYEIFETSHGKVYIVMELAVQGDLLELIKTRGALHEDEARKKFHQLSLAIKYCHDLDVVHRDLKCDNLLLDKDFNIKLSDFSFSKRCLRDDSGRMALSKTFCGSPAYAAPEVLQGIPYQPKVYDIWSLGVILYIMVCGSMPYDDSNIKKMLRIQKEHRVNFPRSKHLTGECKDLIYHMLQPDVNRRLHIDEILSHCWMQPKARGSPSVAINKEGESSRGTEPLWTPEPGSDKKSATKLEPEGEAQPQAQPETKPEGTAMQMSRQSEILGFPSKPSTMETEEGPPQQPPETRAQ

[1] = target: TYK2 JH1 catalytic (human) (UniProt P29597)
WNK3 (human) = WNK3 (human) (UniProt Q9BYP7)

Sequence of CAMK1 (human) (Q14012 whole entry, looked up): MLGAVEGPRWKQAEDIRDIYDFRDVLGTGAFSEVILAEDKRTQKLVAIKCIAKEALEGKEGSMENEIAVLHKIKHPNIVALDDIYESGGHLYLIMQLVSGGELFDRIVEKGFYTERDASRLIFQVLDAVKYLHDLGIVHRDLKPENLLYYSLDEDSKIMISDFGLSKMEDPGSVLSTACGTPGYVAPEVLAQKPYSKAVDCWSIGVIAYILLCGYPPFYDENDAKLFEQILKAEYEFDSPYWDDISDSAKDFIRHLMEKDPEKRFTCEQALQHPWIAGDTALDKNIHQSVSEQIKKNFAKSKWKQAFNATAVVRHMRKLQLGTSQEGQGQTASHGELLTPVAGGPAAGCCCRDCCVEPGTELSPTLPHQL

## COc1cc2ncc(-c3ccccc3)nc2cc1OC
ACVRL1 (human)
  residual activity: 95.8%
AKT1 (human)
  residual activity: 99.2%
ALK (human)
  residual activity: 94.1%
CAMK1 (human)
  residual activity: 90.4%
CAMKK1 (human)
  residual activity: 98.9%
CDK1 CCNA2 (human)
  residual activity: 94.8%
CDK1 CCNB1 (human)
  residual activity: 105%
CDK3 CCNE1 (human)
  residual activity: 83.8%
CLK1 (human)
  residual activity: 102%
CSNK1G3 (human)
  residual activity: 104%
DDR2 (human)
  residual activity: 96.9%
DYRK1B (human)
  residual activity: 110%
DYRK3 (human)
  residual activity: 95.4%
EPHA4 (human)
  residual activity: 99.3%
EPHA7 (human)
  residual activity: 94.7%
FGR (human)
  residual activity: 85.4%
IGF1R (human)
  residual activity: 91.1%
JAK2 JH1 JH2 (human)
  residual activity: 94.4%
MAP3K3 (human)
  residual activity: 90.3%
MAP3K5 (human)
  residual activity: 108%
MAP3K9 (human)
  residual activity: 85.4%
MAPK1 (human)
  residual activity: 95.6%
MAPK12 (human)
  residual activity: 95.5%
MAPK13 (human)
  residual activity: 89.6%
MKNK2 (human)
  residual activity: 86.3%
NTRK2 (human)
  residual activity: 99.5%
PAK4 (human)
  residual activity: 75.9%
PIM2 (human)
  residual activity: 101%
PIM3 (human)
  residual activity: 87.4%
PRKCD (human)
  residual activity: 82.2%
PRKCG (human)
  residual activity: 101%
PRKG2 (human)
  residual activity: 83.6%
RAF1 (human)
  residual activity: 106%
RPS6KA5 KD2 (human)
  residual activity: 91.8%
RPS6KA6 KD1 KD2 (human)
  residual activity: 98.5%
SGK2 (human)
  residual activity: 95.6%
SRC (human)
  residual activity: 96.1%
STK33 (human)
  residual activity: 91.7%
TSSK1B (human)
  residual activity: 94.5%
[1]
  residual activity: 93.9%
WNK3 (human)
  residual activity: 97.5%
